According to patent publication US9321790B2, “Pyrimidinone derivatives as antimalarial agents” (SANOFI, priority 2012, dated 2016):
pIC50: −log10 of the molar value.

Experiments:
[1] = molecular target: human PI3Kα (Homo sapiens (Human), UniProt P42336); test: Human PI3Kα activity test (luciferin/luciferase ATP consumption, KinaseGlo); type: biochemical; conditions: PI3Kα (p110α/p85α), 50 μM PIP2, 2 μM ATP, 90 minutes; read-out: IC50 Human PI3Kα
Method: The test uses a luciferin/luciferase system to measure the concentration of ATP and its consumption during the enzymatic reaction.
After 90 minutes, the reaction is quenched by adding 20 μl/well of KinaseGlo reagent (Promega V6713). After 10 minutes in the dark, the luminescence is read using a PHERAStar microplate reader (reading at 0.8 sec/well).

[2] = tested on: Plasmodium falciparum (strain NF54); test: Antimalarial activity test: growth of Plasmodium falciparum in infected human erythrocytes, 3H-hypoxanthine incorporation; type: cell-based; conditions: strain NF54 sensitive to chloroquine, 72 h total incubation
Method: The compounds according to the invention underwent pharmacological trials to determine their inhibitory effect on the growth of Plasmodium falciparum (strain NF54 sensitive to inhibition with chloroquine) in an in vitro test using infected human erythrocytes. The growth of the parasites is measured via the incorporation of tritiated hypoxanthine compared with the incorporation in the absence of drug. The tests are performed in 96-well microplates (Falcon™ 96-well microtiter plates, ref. No. 353072) in RPMI 1640 solutions (10.44 g/l) (without hypoxanthine) with HEPES (5.94 g/l), NaHCO3 (2.1 g/l), neomycin ([…])+AlbumaxR II (5 g/l) supplemented with human erythrocytes with a final hematocrit of 1.25% and a final parasitemia of 0.15%.
The stock solution of the compounds is prepared at 10 mg/mL in DMSO. For the test, fresh solutions at the desired concentrations are prepared in RPMI medium. For the test, 100 μl of compound are mixed with 100 μl of infected blood. For the determination of the IC50 values, the compounds are tested in twofold serial dilution.
The plates are incubated at 37° C. under a humid atmosphere with 93% N2, 4% CO2 and 3% O2. After 48 hours, 50 μl of ^3H-hypoxanthine (=0.5 μCi) in RPMI medium are added to each well and incubation is continued for a further 24 hours. Next, the plates are washed with distilled water and the cell lyzate is transferred onto fiberglass filters. The filters are dried and the radioactivity is determined by liquid scintillation. The results in cpm are converted into percentages of inhibition. The inhibitory activity is given by the concentration that inhibits 50% of the growth of the parasite relative to a control without compound.

[3] = Plasmodium falciparum, Erythrocyte

Chain of human PI3Kα (P42336 whole entry): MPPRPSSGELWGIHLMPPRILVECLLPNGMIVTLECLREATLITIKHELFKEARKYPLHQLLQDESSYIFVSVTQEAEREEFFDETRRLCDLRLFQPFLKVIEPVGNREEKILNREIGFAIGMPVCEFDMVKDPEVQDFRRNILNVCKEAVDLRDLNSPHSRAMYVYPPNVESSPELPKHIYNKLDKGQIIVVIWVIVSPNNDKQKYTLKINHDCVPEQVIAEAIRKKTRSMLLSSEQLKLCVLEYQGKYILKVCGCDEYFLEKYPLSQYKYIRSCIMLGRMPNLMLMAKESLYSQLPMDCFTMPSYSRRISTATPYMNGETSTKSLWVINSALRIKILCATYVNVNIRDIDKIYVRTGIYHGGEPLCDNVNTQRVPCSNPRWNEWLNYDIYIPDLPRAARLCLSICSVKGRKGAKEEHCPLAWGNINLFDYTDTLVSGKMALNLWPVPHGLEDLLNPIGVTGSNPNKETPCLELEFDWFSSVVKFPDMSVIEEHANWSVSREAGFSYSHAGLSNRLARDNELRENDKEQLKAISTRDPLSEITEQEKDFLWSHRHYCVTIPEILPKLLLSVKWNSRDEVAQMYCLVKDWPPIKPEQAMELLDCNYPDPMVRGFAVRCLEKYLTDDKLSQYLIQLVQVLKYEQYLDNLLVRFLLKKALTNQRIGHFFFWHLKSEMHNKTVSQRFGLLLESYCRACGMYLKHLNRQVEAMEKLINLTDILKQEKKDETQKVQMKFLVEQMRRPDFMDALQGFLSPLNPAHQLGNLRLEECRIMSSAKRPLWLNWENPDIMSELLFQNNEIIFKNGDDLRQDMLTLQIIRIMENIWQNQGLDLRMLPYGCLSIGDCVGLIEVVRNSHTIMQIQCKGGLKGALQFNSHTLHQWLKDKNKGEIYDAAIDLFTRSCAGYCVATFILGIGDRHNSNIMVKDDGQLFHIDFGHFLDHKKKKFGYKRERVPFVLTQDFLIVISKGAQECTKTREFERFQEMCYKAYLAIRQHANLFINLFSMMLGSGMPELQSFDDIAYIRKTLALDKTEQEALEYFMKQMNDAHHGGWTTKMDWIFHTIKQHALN
Chain of human PI3Kα (P27986 whole entry partner): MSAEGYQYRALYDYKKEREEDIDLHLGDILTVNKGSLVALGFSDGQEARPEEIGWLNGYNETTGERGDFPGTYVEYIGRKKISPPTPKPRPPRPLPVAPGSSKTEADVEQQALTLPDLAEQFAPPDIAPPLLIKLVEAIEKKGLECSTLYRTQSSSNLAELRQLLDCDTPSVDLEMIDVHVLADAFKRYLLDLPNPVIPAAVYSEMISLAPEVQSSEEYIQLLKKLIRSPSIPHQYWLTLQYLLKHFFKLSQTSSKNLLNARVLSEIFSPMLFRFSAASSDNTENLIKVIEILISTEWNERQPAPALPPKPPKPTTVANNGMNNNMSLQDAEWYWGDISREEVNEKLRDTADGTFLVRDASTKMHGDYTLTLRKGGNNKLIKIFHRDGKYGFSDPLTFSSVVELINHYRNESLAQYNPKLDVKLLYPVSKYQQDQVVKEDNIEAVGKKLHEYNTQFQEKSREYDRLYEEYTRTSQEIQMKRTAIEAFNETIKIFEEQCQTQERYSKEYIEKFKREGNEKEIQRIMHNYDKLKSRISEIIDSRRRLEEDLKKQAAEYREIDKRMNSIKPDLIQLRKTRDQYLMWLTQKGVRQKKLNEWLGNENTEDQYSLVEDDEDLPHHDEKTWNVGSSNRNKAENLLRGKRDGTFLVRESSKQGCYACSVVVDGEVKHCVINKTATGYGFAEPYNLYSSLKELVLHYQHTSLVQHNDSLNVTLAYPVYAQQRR

pIC50 [1] | pIC50 [2, 3] | pIC50 [2] | Compound
6.47 | 8.05 |  | O=c1cc(N2CC3CCC(C2)O3)nc2n1CC[C@@H](C(F)(F)F)N2C[C@@H](O)c1cc2ccccc2s1 [Compound 82, (8S)-9-((R)-2-Benzo[b]thiophen-2-yl-2-hydroxyethyl)-2-(8-oxa-3-azabicyclo[3.2.1]oct-3-yl)-8-trifluoromethyl-6,7,8,9-tetrahydropyrimido[1,2-a]pyrimidin-4-one]
< 5.00 | 7.02 |  | Cn1nccc1C(=O)CN1c2nc(N3C[C@@H]4C[C@H]3CO4)cc(=O)n2CC[C@H]1C(F)(F)F [Compound 69, (8S)-9-[2-(2-methyl-2H-pyrazol-3-yl)-2-oxoethyl]-2-(1S,4S)-2-oxa-5-azabicyclo[2.2.1]hept-5-yl-8-trifluoromethyl-6,7,8,9-tetrahydropyrimido[1,2-a]pyrimidin-4-one]
< 5.00 | < 6.70 |  | CN(C)c1ccc(C(=O)CN2c3nc(N4C[C@@H]5C[C@H]4CO5)cc(=O)n3C[C@@]2(C)C(F)(F)F)cn1 [Compound 8, 1-[2-(6-Dimethylaminopyrid-3-yl)-2-oxoethyl]-2-(S)-methyl-7-(1S,4S)-2-oxa-5-azabicyclo[2.2.1]hept-5-yl-2-trifluoromethyl-2,3-dihydro-1H-imidazo[1,2-a]pyrimidin-5-one]
< 5.00 | 6.97 |  | O=C(CN1c2nc(N3C[C@@H]4C[C@H]3CO4)cc(=O)n2CC[C@H]1C(F)(F)F)c1cncc(Cl)c1 [Compound 44, (8S)-9-[2-(5-Chloropyrid-3-yl)-2-oxoethyl]-2-(1S,4S)-2-oxa-5-azabicyclo[2.2.1]hept-5-yl-8-trifluoromethyl-6,7,8,9-tetrahydropyrimido[1,2-a]pyrimidin-4-one]
5.72 | 7.62 |  | O=c1cc(N2C[C@@H]3C[C@H]2CO3)nc2n1CC[C@@H](C(F)(F)F)N2CCC1(O)CC1 [Compound 105, (8S)-9-[2-(1-Hydroxycyclopropyl)ethyl]-2-(1S,4S)-2-oxa-5-azabicyclo[2.2.1]hept-5-yl-8-trifluoromethyl-6,7,8,9-tetrahydropyrimido[1,2-a]pyrimidin-4-one]
6.00 | 7.92 |  | CN(C)C(=O)COc1ccc(CCN2c3nc(N4CC5CCC(C4)O5)cc(=O)n3C[C@@]2(C)C(F)(F)F)cc1 [Compound 70, N, N-dimethyl-2-(4-{2-[(S)-2-methyl-7-(8-oxa-3-azabicyclo[3.2.1]oct-3-yl)-5-oxo-2-trifluoromethyl-2,3-dihydro-5H-imidazo[1,2-a]pyrimidin-1-yl]ethyl}phenoxy)acetamide]
< 5.00 | 7.35 |  | CC(C)C(=O)CN1c2nc(N3C[C@@H]4C[C@H]3CO4)cc(=O)n2CC[C@H]1C(F)(F)F [Compound 56, (8S)-9-(3-methyl-2-oxobutyl)-2-(1S,4S)-2-oxa-5-azabicyclo[2.2.1]hept-5-yl-8-trifluoromethyl-6,7,8,9-tetrahydropyrimido[1,2-a]pyrimidin-4-one]
5.66 | 8.00 |  | CCC(O)(CC)CN1c2nc(N3C[C@@H]4C[C@H]3CO4)cc(=O)n2CC[C@H]1C(F)(F)F [Compound 54, (8S)-9-(2-ethyl-2-hydroxybutyl)-2-(1S,4S)-2-oxa-5-azabicyclo[2.2.1]hept-5-yl-8-trifluoromethyl-6,7,8,9-tetrahydropyrimido[1,2-a]pyrimidin-4-one]
6.35 | 8.00 |  | O=c1cc(N2C[C@@H]3C[C@H]2CO3)nc2n1CC[C@@H](C(F)(F)F)N2CC1(O)CCCC1 [Compound 101, (8S)-9-(1-Hydroxycyclopentylmethyl)-2-(1S,4S)-2-oxa-5-azabicyclo[2.2.1]hept-5-yl-8-trifluoromethyl-6,7,8,9-tetrahydropyrimido[1,2-a]pyrimidin-4-one]
< 5.00 | 7.52 |  | CC(=O)N1CCC(C(=O)CN2c3nc(N4C[C@@H]5C[C@H]4CO5)cc(=O)n3CC[C@H]2C(F)(F)F)CC1 [Compound 119, (8S)-9-[2-(1-Acetylpiperid-4-yl)-2-oxoethyl]-2-(1S,4S)-2-oxa-5-azabicyclo[2.2.1]hept-5-yl-8-trifluoromethyl-6,7,8,9-tetrahydropyrimido[1,2-a]pyrimidin-4-one]
< 5.00 |  | 7.55 | N#Cc1cccc(C(=O)CN2c3nc(N4C[C@@H]5C[C@H]4CO5)cc(=O)n3CC[C@H]2C(F)(F)F)c1 [Compound 55, 3-[2-((S)-8-(1S,4S)-2-Oxa-5-azabicyclo[2.2.1]hept-5-yl-6-oxo-2-trifluoromethyl-3,4-dihydro-2H,6H-pyrimido[1,2-a]pyrimidin-1-yl)acetyl]benzonitrile]
6.42 | 8.22 |  | CN(C)CCOc1ccc(CCN2c3nc(N4C[C@@H]5C[C@H]4CO5)cc(=O)n3CC[C@H]2C(F)(F)F)cc1 [Compound 117, (8S)-9-{2-[4-(2-Dimethylaminoethoxyl)phenyl]ethyl}-2-(1S,4S)-2-oxa-5-azabicyclo[2.2.1]hept-5-yl-8-trifluoromethyl-6,7,8,9-tetrahydropyrimido[1,2-a]pyrimidin-4-one]
5.70 | 8.05 |  | O=c1cc(N2C[C@@H]3C[C@H]2CO3)nc2n1CC[C@@H](C(F)(F)F)N2CCC1(O)CCCC1 [Compound 100, (8S)-9-[2-(1-Hydroxycyclopentyl)ethyl]-2-(1S,4S)-2-oxa-5-azabicyclo[2.2.1]hept-5-yl-8-trifluoromethyl-6,7,8,9-tetrahydropyrimido[1,2-a]pyrimidin-4-one]
< 5.00 | 7.01 |  | Cc1ncoc1C(=O)CN1c2nc(N3C[C@@H]4C[C@H]3CO4)cc(=O)n2CC[C@H]1C(F)(F)F [Compound 39, (8S)-9-[2-(4-Methyloxazol-5-yl)-2-oxoethyl]-2-(1S,4S)-2-oxa-5-azabicyclo[2.2.1]hept-5-yl-8-trifluoromethyl-6,7,8,9-tetrahydropyrimido[1,2-a]pyrimidin-4-one]
5.60 | 8.30 |  | O=c1cc(N2C[C@@H]3C[C@H]2CO3)nc2n1CC[C@@H](C(F)(F)F)N2CCC(O)(C1CC1)C1CC1 [Compound 102, (8S)-9-(3,3-Dicyclopropyl-3-hydroxypropyl)-2-(1S,4S)-2-oxa-5-azabicyclo[2.2.1]hept-5-yl-8-trifluoromethyl-6,7,8,9-tetrahydropyrimido[1,2-a]pyrimidin-4-one]
< 5.00 | < 6.70 |  | CN(C)c1ccc(C(=O)CN2c3nc(N4C[C@@H]5C[C@H]4CO5)cc(=O)n3CC[C@H]2C(F)(F)F)cn1 [Compound 6, (8S)-9-[2-(6-dimethylaminopyrid-3-yl)-2-oxoethyl]-2-(1S,4S)-2-oxa-5-azabicyclo[2.2.1]hept-5-yl-8-trifluoromethyl-6,7,8,9-tetrahydropyrimido[1,2-a]pyrimidin-4-one]
< 5.00 |  | 6.70 | CON(C)C(=O)CN1c2nc(N3C[C@@H]4C[C@H]3CO4)cc(=O)n2CC[C@H]1C(F)(F)F [Compound 112, N-Methoxy-N-methyl-2-((S)-8-(1S,4S)-2-oxa-5-azabicyclo[2.2.1]hept-5-yl-6-oxo-2-trifluoromethyl-3,4-dihydro-2H,6H-pyrimido[1,2-a]pyrimidin-1-yl)acetamide]
6.09 | 7.17 |  | CN(C)CCOc1ccc(CCN2c3nc(N4CC5CCC(C4)O5)cc(=O)n3C[C@@]2(C)C(F)(F)F)cc1 [Compound 74, (S)-1-{2-[4-(2-dimethylaminoethoxy)phenyl]ethyl}-2-methyl-7-(8-oxa-3-azabicyclo[3.2.1]oct-3-yl)-2-trifluoromethyl-2,3-dihydro-1H-imidazo[1,2-a]pyrimidin-5-one]
